How the values were obtained:
[1] = tested on: diffuse large B-cell lymphoma (DLBCL) cell lines; experiment: Pre-treatment model combination study with Cpd. No. 15 (7 days pre-treatment, then combination; Table G), CellTiter-Glo viability, Loewe Volume; conditions: 7 days pre-treatment with Cpd. No. 15, then combination; for Combination effect with Cpd. No. 15 (Loewe Volume class), Farage: cell line Farage (Cat. No. CRL-2630); for Combination effect with Cpd. No. 15 (Loewe Volume class), HT: cell line HT (Cat. No. CRL-2631); for Combination effect with Cpd. No. 15 (Loewe Volume class), OCILY7: cell line OCILY7 (Cat. No. ACC 688); for Combination effect with Cpd. No. 15 (Loewe Volume class), SUDHL4: cell line SUDHL4 (Cat. No. ACC 495)
SUDHL5 = experiment: Co-treatment combination study with Cpd. No. 15, CellTiter-Glo viability, Loewe Volume; format: cell-based; conditions: in combination with Cpd. No. 15, seven days, DLBCL cell line SUDHL5
How it was run: (§1)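 Viability after combined dosing was assessed through ATP content by CellTiter-Glo following a 7-day co-incubation of MCL or DLBCL cells with both compounds.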

WILL2 = experiment: as above; format: cell-based; conditions: in combination with Cpd. No. 15, seven days, DLBCL cell line WILL2
How it was run: as §1

MAVER1 = experiment: as above; format: cell-based; conditions: in combination with Cpd. No. 15, seven days, mantle cell lymphoma cell line MAVER1 (CRL-3008)
How it was run: as §1

SUDHL4 = experiment: as above; format: cell-based; conditions: in combination with Cpd. No. 15, seven days, DLBCL cell line SUDHL4
How it was run: as §1

JVM2 = experiment: as above; format: cell-based; conditions: in combination with Cpd. No. 15, seven days, mantle cell lymphoma cell line JVM2 (CRL-3002)
How it was run: as §1

HT = experiment: as above; format: cell-based; conditions: in combination with Cpd. No. 15, seven days, DLBCL cell line HT
How it was run: as §1

SUDHL10 = experiment: as above; format: cell-based; conditions: in combination with Cpd. No. 15; 5-Day Cotreatment; DLBCL cell line SUDHL10
WSUDLCL2 = experiment: as above; format: cell-based; conditions: in combination with Cpd. No. 15, seven days, DLBCL cell line WSUDLCL2
How it was run: as §1

REC1 = experiment: as above; format: cell-based; conditions: in combination with Cpd. No. 15, seven days, mantle cell lymphoma cell line REC1 (CRL-3004)
How it was run: as §1

Pfeiffer = experiment: as above; format: cell-based; conditions: in combination with Cpd. No. 15, seven days, DLBCL cell line Pfeiffer
How it was run: as §1

DOHH2 = experiment: as above; format: cell-based; conditions: in combination with Cpd. No. 15, seven days, DLBCL cell line DOHH2
How it was run: as §1

TOLEDO = experiment: as above; format: cell-based; conditions: in combination with Cpd. No. 15, seven days, DLBCL cell line TOLEDO
How it was run: as §1

KARPAS422 = experiment: as above; format: cell-based; conditions: in combination with Cpd. No. 15, seven days, DLBCL cell line KARPAS422
How it was run: as §1

RL = experiment: as above; format: cell-based; conditions: in combination with Cpd. No. 15; 6-Day Cotreatment; DLBCL cell line RL
SUDHL6 = experiment: as above; format: cell-based; conditions: in combination with Cpd. No. 15, seven days, DLBCL cell line SUDHL6
How it was run: as §1

MINO = experiment: as above; format: cell-based; conditions: in combination with Cpd. No. 15, seven days, mantle cell lymphoma cell line MINO (CRL-3000)
How it was run: as §1

JEKO1 = experiment: as above; format: cell-based; conditions: in combination with Cpd. No. 15, seven days, mantle cell lymphoma cell line JEKO1 (CRL-3006)
How it was run: as §1

SUDHL2 = experiment: as above; format: cell-based; conditions: in combination with Cpd. No. 15, seven days, DLBCL cell line SUDHL2
How it was run: as §1

DB = experiment: as above; format: cell-based; conditions: in combination with Cpd. No. 15, seven days, DLBCL cell line DB
How it was run: as §1

Z138 = experiment: as above; format: cell-based; conditions: in combination with Cpd. No. 15, seven days, mantle cell lymphoma cell line Z138 (CRL-3001)
How it was run: as §1

GRANTA519 = experiment: as above; format: cell-based; conditions: in combination with Cpd. No. 15, seven days, mantle cell lymphoma cell line GRANTA519 (ACC 342)
How it was run: as §1

WSUNHL = experiment: as above; format: cell-based; conditions: in combination with Cpd. No. 15, seven days, DLBCL cell line WSUNHL
How it was run: as §1

SUDHL8 = experiment: as above; format: cell-based; conditions: in combination with Cpd. No. 15, seven days, DLBCL cell line SUDHL8
How it was run: as §1

[2] = tested on: diffuse large B-cell lymphoma (DLBCL) cell lines; experiment: Co-treatment combination study with Cpd. No. 15, further cell lines (Table F), CellTiter-Glo viability, Loewe Volume; format: cell-based; conditions: for Combination effect with Cpd. No. 15 (Loewe Volume class), Ri1: co-treatment with Cpd. No. 15, cell line Ri1 (Cat. No. 96090512-1VL); for Combination effect with Cpd. No. 15 (Loewe Volume class), TMD8: co-treatment with Cpd. No. 15, cell line TMD8 (Cat. No. M-097); for Combination effect with Cpd. No. 15 (Loewe Volume class), WILL1: co-treatment with Cpd. No. 15, cell line WILL1 (Cat. No. ACC 651)
Procedure: Mantle cell lymphoma (MCL) and diffuse large B-cell lymphoma (DLBCL) cell line cultures in log-linear growth rate were treated with combinations of Cpd. No. 15 and combination partners according to a co-treatment model. […] No. 15 and the combination partner. […] Each combination was tested in quadruplicate wells. The final concentration of DMSO (vehicle) in the assay was 0.1% v/v. Fifty microliters of cell line suspension were directly dispensed to the assay-ready plates with an automated multichannel dispenser on to 384-well assay-ready plates. Assay plates were incubated for seven days unless otherwise indicated in a humidified atmosphere of 5% CO2 at 37° C. Quantification of the effect of single agents or combinations on cell viability was performed through measurement of cellular adenosine triphosphate (ATP) using a CellTiter-Glo® (Promega, Madison, WI) Luminescent Cell Viability Assay. Luminescence was detected using a SpectraMax M5 microplate reader (Molecular Devices, Sunnyvale, CA). Concentration response plots were generated in GraphPad Prism version 7.0 for Windows, GraphPad Software, (La Jolla, California) and curves fitted to a four-parameter logistic model with variable slope. Percent of inhibition was calculated at each treatment concentration.

| SMILES | Combination effect with Cpd. No. 15 (Loewe Volume class), Farage [1] | Combination effect with Cpd. No. 15 (Loewe Volume class), HT [1] | Combination effect with Cpd. No. 15 (Loewe Volume class), OCILY7 [1] | Combination effect with Cpd. No. 15 (Loewe Volume class), SUDHL4 [1] | Combination effect (Loewe Volume) SUDHL5 (SUDHL5) | Combination effect (Loewe Volume) WILL2 (WILL2) | Combination effect (Loewe Volume) MAVER1 (MAVER1) | Combination effect (Loewe Volume) SUDHL4 (SUDHL4) | Combination effect (Loewe Volume) JVM2 (JVM2) | Combination effect (Loewe Volume) HT (HT) | Combination effect (Loewe Volume) SUDHL10 (SUDHL10) | Combination effect (Loewe Volume) WSUDLCL2 (WSUDLCL2) | Combination effect (Loewe Volume) REC1 (REC1) | Combination effect (Loewe Volume) Pfeiffer (Pfeiffer) | Combination effect (Loewe Volume) DOHH2 (DOHH2) | Combination effect (Loewe Volume) TOLEDO (TOLEDO) | Combination effect (Loewe Volume) KARPAS422 (KARPAS422) | Combination effect (Loewe Volume) RL (RL) | Combination effect (Loewe Volume) SUDHL6 (SUDHL6) | Combination effect (Loewe Volume) MINO (MINO) | other results |
| --- | --- | --- | --- | --- | --- | --- | --- | --- | --- | --- | --- | --- | --- | --- | --- | --- | --- | --- | --- | --- | --- |
| CC#CC(=O)N1CCC[C@H]1c1nc(-c2ccc(C(=O)Nc3ccccn3)cc2)c2c(N)nccn12 [Acalabrutinib, acalabrutinib] | Synergy (VLoewe>1: synergy) | No Effect | No Effect | No Effect | No Effect | Additivity (between 1 and −1: additivity) | Synergy (VLoewe>1: synergy) | No Effect | Additivity (between 1 and −1: additivity) | No Effect | No Effect | Additivity (between 1 and −1: additivity) | Additivity (between 1 and −1: additivity) | No Effect | No Effect | No Effect | No Effect | No Effect | Synergy (VLoewe>1: synergy) | Synergy (VLoewe>1: synergy) | Combination effect with Cpd. No. 15 (Loewe Volume class), WILL2 ([1]; cell line WILL2 (Cat. No. ACC 652)): No Effect; Combination effect (Loewe Volume) JEKO1 (JEKO1): Synergy (VLoewe>1: synergy); Combination effect (Loewe Volume) SUDHL2 (SUDHL2): No Effect; Combination effect (Loewe Volume) DB (DB): No Effect; Combination effect (Loewe Volume) Z138 (Z138): No Effect; Combination effect (Loewe Volume) GRANTA519 (GRANTA519): Additivity (between 1 and −1: additivity); Combination effect (Loewe Volume) WSUNHL (WSUNHL): No Effect; Combination effect (Loewe Volume) SUDHL8 (SUDHL8): No Effect; Combination effect with Cpd. No. 15 (Loewe Volume class), Ri1 [2]: Synergy (VLoewe>1: synergy); Combination effect with Cpd. No. 15 (Loewe Volume class), TMD8 [2]: Synergy (VLoewe>1: synergy); Combination effect with Cpd. No. 15 (Loewe Volume class), WILL1 [2]: No Effect |
| C=CC(=O)N1CCC([C@@H]2CCNc3c(C(N)=O)c(-c4ccc(Oc5ccccc5)cc4)nn32)CC1 [Zanubrutinib, zanubrutinib] | Synergy (VLoewe>1: synergy) | Synergy (VLoewe>1: synergy) | Synergy (VLoewe>1: synergy) | Synergy (VLoewe>1: synergy) | No Effect | Additivity (between 1 and −1: additivity) | Synergy (VLoewe>1: synergy) | Synergy (VLoewe>1: synergy) | Additivity (between 1 and −1: additivity) | No Effect | No Effect | Additivity (between 1 and −1: additivity) | Additivity (between 1 and −1: additivity) | No Effect | Synergy (VLoewe>1: synergy) | Additivity (between 1 and −1: additivity) | No Effect | No Effect | Synergy (VLoewe>1: synergy) | Synergy (VLoewe>1: synergy) | Combination effect (Loewe Volume) JEKO1 (JEKO1): Synergy (VLoewe>1: synergy); Combination effect (Loewe Volume) SUDHL2 (SUDHL2): No Effect; Combination effect (Loewe Volume) DB (DB): No Effect; Combination effect (Loewe Volume) Z138 (Z138): No Effect; Combination effect (Loewe Volume) GRANTA519 (GRANTA519): Additivity (between 1 and −1: additivity); Combination effect (Loewe Volume) WSUNHL (WSUNHL): Additivity (between 1 and −1: additivity); Combination effect (Loewe Volume) SUDHL8 (SUDHL8): No Effect; Combination effect with Cpd. No. 15 (Loewe Volume class), Ri1 [2]: Synergy (VLoewe>1: synergy); Combination effect with Cpd. No. 15 (Loewe Volume class), TMD8 [2]: Synergy (VLoewe>1: synergy); Combination effect with Cpd. No. 15 (Loewe Volume class), WILL1 [2]: No Effect |
